Data on 1 compound can be found in the NIST ThermoML archive (doi:10.1016/j.tca.2018.05.016).

Numbers after ± are expanded uncertainties.

The conditions of data set [1]: Crystal; DSC.
Data set [2] in a line: Molar enthalpy of transition or fusion. To be noted: Crystal; DSC.

For `O=[N+]([O-])[O-].c1cc[nH+]cc1` [pyridinium nitrate], the Triple point temperature in data set [1] was 390 ± 5 K. For the same compound, the “Molar enthalpy of transition or fusion” value in data set [2] is 4.13 ± 0.148 kcal/mol.
